Measured values taken from patent US9067977B2, “Peptides derivatized with A-B-C-D- and their therapeutical use” (Novo Nordisk A/S, priority 2007, dated 2015).
Starred links: 1 amine or outer side, 2 acyl side, 3 side chain; linkers in the order of their positions; H or OH if unused. Non-standard residues stand in square brackets, D forms with d. Residues, ends and D or L forms follow the SMILES beside them. Groups on a side chain read outwards from the residue. *: point of attachment. X1 = O=C(CCCCCCCCCCCCCCCc1nnn[nH]1)NS(=O)(=O)CCCC(=O)*; γGlu = O=C(O)[C@H](CCC(=O)[*:2])N[*:1]; 12Ado = NCCCCCCCCCCCC(=O)O; AEEA = NCCOCCOCC(=O)O; Aib = CC(C)(N)C(=O)O

What was measured:
[1] = target: T1, human serum albumin (HSA) (Homo sapiens, UniProt P02768); experiment: in vitro; details: pH 7.4
T1 sequence (P02768 25-609): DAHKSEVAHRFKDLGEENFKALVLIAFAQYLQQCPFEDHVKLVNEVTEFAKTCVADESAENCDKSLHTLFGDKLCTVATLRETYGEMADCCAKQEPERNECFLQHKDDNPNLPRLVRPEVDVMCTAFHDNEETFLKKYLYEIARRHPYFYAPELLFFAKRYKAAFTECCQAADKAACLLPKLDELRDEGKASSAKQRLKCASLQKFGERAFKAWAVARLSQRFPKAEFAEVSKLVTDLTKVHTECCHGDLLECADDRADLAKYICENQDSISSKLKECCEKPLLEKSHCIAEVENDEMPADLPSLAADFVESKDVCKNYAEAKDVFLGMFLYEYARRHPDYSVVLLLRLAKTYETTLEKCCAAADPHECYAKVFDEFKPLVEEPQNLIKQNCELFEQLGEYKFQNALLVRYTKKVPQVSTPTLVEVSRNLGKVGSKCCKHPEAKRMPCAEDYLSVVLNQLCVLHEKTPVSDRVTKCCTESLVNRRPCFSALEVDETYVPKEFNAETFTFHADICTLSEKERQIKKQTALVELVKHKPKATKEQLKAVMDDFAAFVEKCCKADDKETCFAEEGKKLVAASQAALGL
Description: (§1) Streptavidin-SPA beads (GE Healthcare RPNQ0009) were incubated with biotinylated HSA for 5 hours. The beads were washed with buffer to remove unbound HSA. […] After 20 hours of gentle rocking at room temperature the plates were centrifuged and counted on a TopCounter.

[2] = target: T1, human serum albumin (HSA); experiment: Albumin binding affinity, competition scintillation proximity assay
Description: as §1

Compound	EC50 at 20 h [1] [nM]	EC50 [2] [nM]	further results
CC[C@H](C)[C@H](NC(=O)[C@H](Cc1ccccc1)NC(=O)[C@H](CCC(=O)O)NC(=O)[C@H](CCCCNC(=O)COCCOCCNC(=O)CC[C@H](NC(=O)CC[C@H](NC(=O)CCCCCCCCCCCNC(=O)CCCS(=O)(=O)NC(=O)CCCCCCCCCCCCCCCc1nnn[nH]1)C(=O)O)C(=O)O)NC(=O)[C@H](C)NC(=O)[C@H](C)NC(=O)[C@H](CCC(N)=O)NC(=O)CNC(=O)[C@H](CCC(=O)O)NC(=O)[C@H](CC(C)C)NC(=O)[C@H](Cc1ccc(O)cc1)NC(=O)[C@H](CO)NC(=O)[C@H](CO)NC(=O)[C@@H](NC(=O)[C@H](CC(=O)O)NC(=O)[C@H](CO)NC(=O)[C@@H](NC(=O)[C@H](Cc1ccccc1)NC(=O)[C@@H](NC(=O)CNC(=O)[C@H](CCC(=O)O)NC(=O)C(C)(C)NC(=O)[C@@H](N)Cc1c[nH]cn1)[C@@H](C)O)[C@@H](C)O)C(C)C)C(=O)N[C@@H](C)C(=O)N[C@@H](Cc1c[nH]c2ccccc12)C(=O)N[C@@H](CC(C)C)C(=O)N[C@@H](CCCCN)C(=O)NCC(=O)O [Example 43, N-epsilon26-[2-(2-{2-[(S)-4-Carboxy-4-((S)-4-carboxy-4-{12-[4-(16-(1H-tetrazol-5-yl)hexadecanoylsulfamoyl)butyrylamino]dodecanoylamino}butyrylamino)butyrylamino]ethoxy}ethoxy)acetyl][Aib8,Lys33,Arg34]GLP-1-(7-34)]	–	–	EC50 [1]: 1 to 100 nM
CC[C@H](C)[C@H](NC(=O)[C@H](Cc1ccccc1)NC(=O)[C@H](CCC(=O)O)NC(=O)[C@H](CCCCNC(=O)COCCOCCNC(=O)CC[C@H](NC(=O)CC[C@H](NC(=O)CCCCCNC(=O)CCCS(=O)(=O)NC(=O)CCCCCCCCCCCCCCCc1nnn[nH]1)C(=O)O)C(=O)O)NC(=O)[C@H](C)NC(=O)[C@H](C)NC(=O)[C@H](CCC(N)=O)NC(=O)CNC(=O)[C@H](CCC(=O)O)NC(=O)[C@H](CC(C)C)NC(=O)[C@H](Cc1ccc(O)cc1)NC(=O)[C@H](CO)NC(=O)[C@H](CO)NC(=O)[C@@H](NC(=O)[C@H](CC(=O)O)NC(=O)[C@H](CO)NC(=O)[C@@H](NC(=O)[C@H](Cc1ccccc1)NC(=O)[C@@H](NC(=O)CNC(=O)[C@H](CCC(=O)O)NC(=O)C(C)(C)NC(=O)[C@@H](N)Cc1c[nH]cn1)[C@@H](C)O)[C@@H](C)O)C(C)C)C(=O)N[C@@H](C)C(=O)N[C@@H](Cc1c[nH]c2ccccc12)C(=O)N[C@@H](CC(C)C)C(=O)N[C@H](C(=O)N[C@@H](CCCNC(=N)N)C(=O)NCC(=O)O)C(C)C [Example 40, N-epsilon26-[2-(2-{2-[(S)-4-Carboxy-4-((S)-4-carboxy-4-{6-[4-(16-(1H-tetrazol-5-yl)hexadecanoylsulfamoyl)butyrylamino]hexanoylamino}butyrylamino)butyrylamino]ethoxy}ethoxy)acetyl][Aib8,Arg34]GLP-1-(7-35)]	150 to 300	–	–
CC[C@H](C)[C@H](NC(=O)[C@H](Cc1ccccc1)NC(=O)[C@H](CCC(=O)O)NC(=O)[C@H](CCCNC(=N)N)NC(=O)[C@H](C)NC(=O)[C@H](C)NC(=O)[C@H](CCC(N)=O)NC(=O)[C@H](CCC(=O)O)NC(=O)[C@H](CCC(=O)O)NC(=O)[C@H](CC(C)C)NC(=O)[C@H](Cc1ccc(O)cc1)NC(=O)[C@H](CO)NC(=O)[C@H](CO)NC(=O)[C@@H](NC(=O)[C@H](CC(=O)O)NC(=O)[C@H](CO)NC(=O)[C@@H](NC(=O)[C@H](Cc1ccccc1)NC(=O)[C@@H](NC(=O)CNC(=O)[C@H](CCC(=O)O)NC(=O)C(C)(C)NC(=O)[C@@H](N)Cc1c[nH]cn1)[C@@H](C)O)[C@@H](C)O)C(C)C)C(=O)N[C@@H](C)C(=O)N[C@@H](Cc1c[nH]c2ccccc12)C(=O)N[C@@H](CC(C)C)C(=O)N[C@H](C(=O)N[C@@H](CCCNC(=N)N)C(=O)NCC(=O)N[C@@H](CCCNC(=N)N)C(=O)NCC(=O)N[C@@H](CCCCNC(=O)COCCOCCNC(=O)CC[C@H](NC(=O)CC[C@H](NC(=O)CCCCCCCCCCCNC(=O)CCCS(=O)(=O)NC(=O)CCCCCCCCCCCCCCCc1nnn[nH]1)C(=O)O)C(=O)O)C(N)=O)C(C)C [Example 46, [Aib8,Glu22,Arg26,Arg34]GLP-1-(7-37)Lys[2-(2-{2-[(S)-4-Carboxy-4-((S)-4-carboxy-4-{12-[4-(16-(1H-tetrazol-5-yl)hexadecanoylsulfamoyl)butyrylamino]dodecanoylamino}-butyrylamino)butyrylamino]ethoxy}ethoxy)acetyl]amide] (H-H[Aib]EGTFTSDVSSYLEEQAAREFIAWLVRGRGK([AEEA-γGlu-γGlu-12Ado-X1])-NH2)	–	1 to 100	–
CC[C@H](C)[C@H](NC(=O)[C@H](Cc1ccccc1)NC(=O)[C@H](CCC(=O)O)NC(=O)[C@H](CCCCNC(=O)COCCOCCNC(=O)CC[C@H](NC(=O)CC[C@H](NC(=O)CCCCCCCCCCCNC(=O)CCCS(=O)(=O)NC(=O)CCCCCCCCCCCCCCCc1nnn[nH]1)C(=O)O)C(=O)O)NC(=O)[C@H](C)NC(=O)[C@H](C)NC(=O)[C@H](CCC(N)=O)NC(=O)CNC(=O)[C@H](CCC(=O)O)NC(=O)[C@H](CC(C)C)NC(=O)[C@H](Cc1ccc(O)cc1)NC(=O)[C@H](CO)NC(=O)[C@H](CO)NC(=O)[C@@H](NC(=O)[C@H](CC(=O)O)NC(=O)[C@H](CO)NC(=O)[C@@H](NC(=O)[C@H](Cc1ccccc1)NC(=O)[C@@H](NC(=O)CNC(=O)[C@H](CCC(=O)O)NC(=O)C(C)(C)NC(=O)[C@@H](N)Cc1c[nH]cn1)[C@@H](C)O)[C@@H](C)O)C(C)C)C(=O)N[C@@H](C)C(=O)N[C@@H](Cc1c[nH]c2ccccc12)C(=O)N[C@@H](CC(C)C)C(=O)N[C@H](C(=O)N[C@@H](CCCNC(=N)N)C(=O)NCC(=O)O)C(C)C [Example 39, N-epsilon26-[2-(2-{2-[(S)-4-Carboxy-4-((S)-4-carboxy-4-{12-[4-(16-(1H-tetrazol-5-yl)hexadecanoylsulfamoyl)butyrylamino]dodecanoylamino}butyrylamino)butyrylamino]ethoxy}ethoxy)acetyl][Aib8,Arg34]GLP-1-(7-35)]	1 to 100	–	–
CC[C@H](C)[C@H](NC(=O)[C@H](Cc1ccccc1)NC(=O)[C@H](CCC(=O)O)NC(=O)[C@H](CCCCNC(=O)COCCOCCNC(=O)CC[C@H](NC(=O)CC[C@H](NC(=O)CCCCCCCCCCCNC(=O)CCCS(=O)(=O)NC(=O)CCCCCCCCCCCCCCCc1nnn[nH]1)C(=O)O)C(=O)O)NC(=O)[C@H](C)NC(=O)[C@H](C)NC(=O)[C@H](CCC(N)=O)NC(=O)CNC(=O)[C@H](CCC(=O)O)NC(=O)[C@H](CC(C)C)NC(=O)[C@H](Cc1ccc(O)cc1)NC(=O)[C@H](CO)NC(=O)[C@H](CO)NC(=O)[C@@H](NC(=O)[C@H](CC(=O)O)NC(=O)[C@H](CO)NC(=O)[C@@H](NC(=O)[C@H](Cc1ccccc1)NC(=O)[C@@H](NC(=O)CNC(=O)[C@H](CCC(=O)O)NC(=O)C(C)(C)NC(=O)[C@@H](N)Cc1c[nH]cn1)[C@@H](C)O)[C@@H](C)O)C(C)C)C(=O)N[C@@H](C)C(=O)N[C@@H](Cc1c[nH]c2ccccc12)C(=O)N[C@@H](CC(C)C)C(=O)N[C@H](C(=O)N[C@@H](CCCNC(=N)N)C(=O)NCC(=O)N[C@@H](CCCNC(=N)N)C(N)=O)C(C)C [Example 44, N-epsilon26-[2-(2-{2-[(S)-4-Carboxy-4-((S)-4-carboxy-4-{12-[4-(16-(1H-tetrazol-5-yl)hexadecanoylsulfamoyl)butyrylamino]dodecanoylamino}butyrylamino)butyrylamino]ethoxy}ethoxy)acetyl][Aib8,Arg34]GLP-1-(7-36)amide]	–	1 to 100	–
CC[C@H](C)[C@H](NC(=O)[C@H](Cc1ccccc1)NC(=O)[C@H](CCC(=O)O)NC(=O)[C@H](CCCCNC(=O)COCCOCCNC(=O)CC[C@H](NC(=O)CC[C@H](NC(=O)CCCCCNC(=O)CCCS(=O)(=O)NC(=O)CCCCCCCCCCCCCCCc1nnn[nH]1)C(=O)O)C(=O)O)NC(=O)[C@H](C)NC(=O)[C@H](C)NC(=O)[C@H](CCC(N)=O)NC(=O)CNC(=O)[C@H](CCC(=O)O)NC(=O)[C@H](CC(C)C)NC(=O)[C@H](Cc1ccc(O)cc1)NC(=O)[C@H](CO)NC(=O)[C@H](CO)NC(=O)[C@@H](NC(=O)[C@H](CC(=O)O)NC(=O)[C@H](CO)NC(=O)[C@@H](NC(=O)[C@H](Cc1ccccc1)NC(=O)[C@@H](NC(=O)CNC(=O)[C@H](CCC(=O)O)NC(=O)C(C)(C)NC(=O)[C@@H](N)Cc1c[nH]cn1)[C@@H](C)O)[C@@H](C)O)C(C)C)C(=O)N[C@@H](C)C(=O)N[C@@H](Cc1c[nH]c2ccccc12)C(=O)N[C@@H](CC(C)C)C(=O)N[C@H](C(=O)N[C@@H](CCCNC(=N)N)C(=O)O)C(C)C [Example 38, N-epsilon26-[2-(2-{2-[(S)-4-Carboxy-4-((S)-4-carboxy-4-{6-[4-(16-(1H-tetrazol-5-yl)hexadecanoylsulfamoyl)butyrylamino]hexanoylamino}butyrylamino)butyrylamino]ethoxy}ethoxy)acetyl][Aib8,Arg34]GLP-1-(7-34)]	–	–	EC50 at 20 h ([2]; human, biotinylated human serum albumin on streptavidin-SPA beads, pH 7.4): 1 to 100 nM
